These results are taken from the NIST ThermoML archive (doi:10.1021/je200637v).

The nature of the data set: activity coefficient (dimensionless); of the first substance listed, at infinite dilution; xn = mol fraction of the nth substance listed. As to conditions: Liquid, Chromatography, x1 = 0.

Numbers after ± are expanded uncertainties.

Take `C#CCCCC` [1-hexyne] + CCCCCCCC[N+](CCCCCCCC)(CCCCCCCC)CCCCCCCC.O=S(=O)([N-]S(=O)(=O)C(F)(F)F)C(F)(F)F: the activity coefficient was determined as 0.75 ± 0.03 (322.85 K), 0.76 ± 0.03 (332.65 K) and 0.76 ± 0.03 (343.15 K).
With `CC(C)CO` [2-methyl-1-propanol] + CCCCCCCC[N+](CCCCCCCC)(CCCCCCCC)CCCCCCCC.O=S(=O)([N-]S(=O)(=O)C(F)(F)F)C(F)(F)F, the activity coefficient is, setting by setting: (322.85 K) 1.17 ± 0.04; (332.65 K) 1.09 ± 0.03; (343.15 K) 1 ± 0.03.
Take `Cc1ccccc1` [toluene] + CCCCCCCC[N+](C)(C)C.O=S(=O)([N-]S(=O)(=O)C(F)(F)F)C(F)(F)F: the activity coefficient turned out to be 0.97 ± 0.03 (322.85 K), 0.98 ± 0.03 (332.65 K) and 0.98 ± 0.03 (343.15 K).
In the case of `CCCC(C)=O` [pentan-2-one] + CCCCCCCCCC[N+](C)(C)C.O=S(=O)([N-]S(=O)(=O)C(F)(F)F)C(F)(F)F, the activity coefficient came to 0.44 ± 0.03 (322.85 K), 0.47 ± 0.03 (332.65 K) and 0.47 ± 0.03 (343.15 K).
Turning to `CC1CCCCC1` [methylcyclohexane] + CCCCCCCC[N+](C)(C)C.O=S(=O)([N-]S(=O)(=O)C(F)(F)F)C(F)(F)F, the activity coefficient is, setting by setting: (322.85 K) 5.23 ± 0.24; (332.65 K) 4.93 ± 0.23; (343.15 K) 4.6 ± 0.21.
Taken in the same sequence, the figures for `CCO` [ethanol] + CCCC[N+](C)(CCCC)CCCC.O=S(=O)([N-]S(=O)(=O)C(F)(F)F)C(F)(F)F were 1.53 ± 0.06, 1.4 ± 0.05 and 1.27 ± 0.04.
`c1ccsc1` [thiophene] + CCCCCCCC[N+](CCCCCCCC)(CCCCCCCC)CCCCCCCC.O=S(=O)([N-]S(=O)(=O)C(F)(F)F)C(F)(F)F: the activity coefficient is 0.4 ± 0.03 (322.85 K), 0.4 ± 0.03 (332.65 K) and 0.41 ± 0.03 (343.15 K).
On to `ClC(Cl)Cl` [trichloromethane] + CCCCCCCC[N+](C)(C)C.O=S(=O)([N-]S(=O)(=O)C(F)(F)F)C(F)(F)F, for which the activity coefficient by setting is: (322.85 K) 0.63 ± 0.03; (332.65 K) 0.65 ± 0.03; (343.15 K) 0.66 ± 0.03.
Taken in the same sequence, the figures for `CCC(C)=O` [butanone] + CCCCCCCC[N+](C)(C)C.O=S(=O)([N-]S(=O)(=O)C(F)(F)F)C(F)(F)F were 0.41 ± 0.03, 0.38 ± 0.03 and 0.34 ± 0.04.
Taken in the same sequence, the figures for `ClC(Cl)Cl` [trichloromethane] + CCCC[N+](C)(CCCC)CCCC.O=S(=O)([N-]S(=O)(=O)C(F)(F)F)C(F)(F)F were 0.84 ± 0.03, 0.87 ± 0.03 and 0.88 ± 0.03.
Taken in the same sequence, the figures for `C[N+](=O)[O-]` [nitromethane] + CCCCCCCC[N+](CCCCCCCC)(CCCCCCCC)CCCCCCCC.O=S(=O)([N-]S(=O)(=O)C(F)(F)F)C(F)(F)F were 0.63 ± 0.03, 0.61 ± 0.03 and 0.59 ± 0.03.
Consider `CCCCCCCCC` [nonane] + CCCCCCCC[N+](CCCCCCCC)(CCCCCCCC)CCCCCCCC.O=S(=O)([N-]S(=O)(=O)C(F)(F)F)C(F)(F)F, for which the activity coefficient by setting is: (322.85 K) 2.19 ± 0.1; (332.65 K) 2.14 ± 0.1; (343.15 K) 2.09 ± 0.09.
For `CCCCCCCC` [octane] + CCCC[N+](C)(CCCC)CCCC.O=S(=O)([N-]S(=O)(=O)C(F)(F)F)C(F)(F)F, the activity coefficient reads like this: (322.85 K) 11.6 ± 0.53; (332.65 K) 11.5 ± 0.53; (343.15 K) 10.8 ± 0.5.
The matching figures for `CC#N` [acetonitrile] + CCCCCCCCCC[N+](C)(C)C.O=S(=O)([N-]S(=O)(=O)C(F)(F)F)C(F)(F)F: 0.44 ± 0.03, 0.44 ± 0.03 and 0.42 ± 0.03.
The matching figures for `CC(C)CC(C)(C)C` [2,2,4-trimethylpentane] + CCCCCCCCCC[N+](C)(C)C.O=S(=O)([N-]S(=O)(=O)C(F)(F)F)C(F)(F)F: 5.41 ± 0.25, 5.29 ± 0.24 and 4.92 ± 0.22.
Taken in the same sequence, the figures for `Cc1ccccc1` [toluene] + CCCCCCCC[N+](CCCCCCCC)(CCCCCCCC)CCCCCCCC.O=S(=O)([N-]S(=O)(=O)C(F)(F)F)C(F)(F)F were 0.47 ± 0.03, 0.48 ± 0.03 and 0.49 ± 0.03.
Regarding `ClC(Cl)(Cl)Cl` [tetrachloromethane] + CCCCCCCC[N+](C)(C)C.O=S(=O)([N-]S(=O)(=O)C(F)(F)F)C(F)(F)F, the activity coefficient (322.85 K) amounted to 1.63 ± 0.07, the activity coefficient (332.65 K) turned out to be 1.63 ± 0.07 and the activity coefficient (343.15 K) is 1.6 ± 0.06.
Consider `c1ccccc1` [benzene] + CCCCCCCC[N+](C)(C)C.O=S(=O)([N-]S(=O)(=O)C(F)(F)F)C(F)(F)F, for which the activity coefficient is 0.73 ± 0.03 (322.85 K), 0.74 ± 0.03 (332.65 K) and 0.73 ± 0.03 (343.15 K).
`CCC=O` [propanal] + CCCCCCCCCC[N+](C)(C)C.O=S(=O)([N-]S(=O)(=O)C(F)(F)F)C(F)(F)F: the activity coefficient by setting is: (322.85 K) 0.4 ± 0.03; (332.65 K) 0.42 ± 0.03; (343.15 K) 0.41 ± 0.03.
Taken in the same sequence, the figures for `CC#N` [acetonitrile] + CCCC[N+](C)(CCCC)CCCC.O=S(=O)([N-]S(=O)(=O)C(F)(F)F)C(F)(F)F were 0.49 ± 0.03, 0.5 ± 0.03 and 0.48 ± 0.03.
The matching figures for `CO` [methanol] + CCCCCCCC[N+](C)(C)C.O=S(=O)([N-]S(=O)(=O)C(F)(F)F)C(F)(F)F: 0.92 ± 0.03, 0.78 ± 0.03 and 0.81 ± 0.03.
As for `CC1CCCC1` [methylcyclopentane] + CCCCCCCC[N+](C)(C)C.O=S(=O)([N-]S(=O)(=O)C(F)(F)F)C(F)(F)F, the activity coefficient was 4.18 ± 0.19 (322.85 K), 3.95 ± 0.18 (332.65 K) and 3.67 ± 0.17 (343.15 K).
For the compound `CCOCC` [diethyl ether] + CCCC[N+](C)(CCCC)CCCC.O=S(=O)([N-]S(=O)(=O)C(F)(F)F)C(F)(F)F, the activity coefficient (322.85 K) was determined as 1.65 ± 0.07, the activity coefficient (332.65 K) turned out to be 1.67 ± 0.07 and the activity coefficient (343.15 K) turned out to be 1.65 ± 0.07.
As to `CCC[N+](=O)[O-]` [1-nitropropane] + CCCCCCCC[N+](C)(C)C.O=S(=O)([N-]S(=O)(=O)C(F)(F)F)C(F)(F)F, the activity coefficient (322.85 K) amounted to 0.62 ± 0.03, the activity coefficient (332.65 K) was determined as 0.61 ± 0.03 and the activity coefficient (343.15 K) was determined as 0.6 ± 0.03.
With `CCCCCCCCC` [nonane] + CCCCCCCCCC[N+](C)(C)C.O=S(=O)([N-]S(=O)(=O)C(F)(F)F)C(F)(F)F, the activity coefficient by setting is: (322.85 K) 8.87 ± 0.41; (332.65 K) 8.63 ± 0.4; (343.15 K) 7.61 ± 0.35.
Taken in the same sequence, the figures for `C1CCCCC1` [cyclohexane] + CCCC[N+](C)(CCCC)CCCC.O=S(=O)([N-]S(=O)(=O)C(F)(F)F)C(F)(F)F were 4.74 ± 0.22, 4.71 ± 0.21 and 4.44 ± 0.2.
Taken in the same sequence, the figures for `Cc1cccc(C)c1` [1,3-dimethylbenzene] + CCCCCCCC[N+](C)(C)C.O=S(=O)([N-]S(=O)(=O)C(F)(F)F)C(F)(F)F were 1.39 ± 0.05, 1.39 ± 0.05 and 1.38 ± 0.05.
